This note sets out measurements from patent publication US11739122B2, “Glycopeptide antibiotic compounds, methods for producing the same, and uses thereof” (Academia Sinica, priority 2019, dated 2023).

For one data set, the system named is MRSA ATCC BAA-44. As to the kind of experiment: MIC, broth microdilution. Format: cell-based, Staphylococcus aureus. In a few lines: (§1)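 No visible growth defines the MIC. Plates are incubated 18-24 h at 37° C using a broth inoculum set near 1×10^8 CFU mL^−1.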
The test system of a further data set is MRSA ATCC 700787 VRSA. The experiment in a line: MIC, broth microdilution. The data set is classed as cell-based, Staphylococcus aureus. In a few lines: as §1
Another data set relates to MRSA ATCC 700698 hVISA. As to the kind of experiment: MIC, broth microdilution. The data set is classed as cell-based, Staphylococcus aureus. In a few lines: as §1
In a further data set the test system is MRSA ATCC BAA-39. The experiment in a line: MIC, broth microdilution. The data set is classed as cell-based, Staphylococcus aureus. Summed up:
as §1

The next data set concerns MRSA ATCC 43300. The experiment in a line: MIC, broth microdilution. Format: cell-based, Staphylococcus aureus. Summed up:
as §1

The next data set has as its system MRSA ATCC 700789 VRSA. The experiment in a line: MIC, broth microdilution. The data set is classed as cell-based, Staphylococcus aureus. In a few lines: as §1
Another data set deals with S. aureus ATCC 29213. As to the kind of experiment: MIC, broth microdilution. Format: cell-based, Staphylococcus aureus. Summed up: as §1
The next data set has as its system MRSA ATCC BAA-38. As to the kind of experiment: MIC, broth microdilution. The data set is classed as cell-based, Staphylococcus aureus. In a few lines:
as §1

The test system of the next data set is VRE ATCC 700425 (vanC). The experiment in a line: MIC, broth microdilution. Format: cell-based, enterococci. In a few lines:
as §1

The next data set deals with VRE ATCC 700802 (vanB). As to the kind of experiment: MIC, broth microdilution. The data set is classed as cell-based, enterococci. In a few lines: as §1
A further data set has as its system VRE ATCC 700221 (vanA). As to the kind of experiment: MIC, broth microdilution. Format: cell-based, enterococci. In a few lines: as §1
The test system of a further data set is E. faecalis ATCC 29302. As to the kind of experiment: MIC, broth microdilution. The data set is classed as cell-based. Summed up:
as §1

Another data set addresses T1, Orf2*T (Actinoplanes teichomyceticus, UniProt A0A561VD00, F193Y/S98A/V121A).
T1 sequence (A0A561VD00 with tags, fused parts or gaps S98A/V121A/F193Y): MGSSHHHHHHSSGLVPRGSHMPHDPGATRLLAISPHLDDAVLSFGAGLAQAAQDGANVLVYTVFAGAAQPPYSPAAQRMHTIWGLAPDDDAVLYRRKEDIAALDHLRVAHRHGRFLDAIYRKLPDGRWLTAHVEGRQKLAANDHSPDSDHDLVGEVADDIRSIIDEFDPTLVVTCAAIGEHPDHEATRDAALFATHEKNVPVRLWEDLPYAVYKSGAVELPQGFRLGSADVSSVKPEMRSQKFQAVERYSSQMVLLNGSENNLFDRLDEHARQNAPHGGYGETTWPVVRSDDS
As to the kind of experiment: ITC binding affinity. The settings on record: ITC versus Orf2*T. Here is the method: (§2) Isothermal Titration Calormetry (ITC) Analysis
(§3) A stock solution (50 mM) was prepared by dissolving r6,GlcNAc pseudoaglycone (9) in 50% DMSO. The 1 mM protein solutions of Orf2*, Orf2*T and Dbv27 were prepared in a 50 mM HEPES buffer solution at pH 8.0. The solution (50 mM HEPES, pH8.0 and 10% DMSO) that contained compound 9 (1 mM) or S-adenosylmethionine (SAM) (1 mM) in a 40 μL injection syringe was titrated into the Orf2*, Orf2*T or Dbv27 (0.1 mM) protein solution, which was placed in the sample cell of a 200 μL volume. Each titration consisted of 16 injections of a 2 μL4 s^−1 duration in an interval of 150 seconds. Data analysis was performed by software.

Data set [1] deals with T2, Orf2* (Actinoplanes teichomyceticus, UniProt A0A561VD00). The experiment in a line: ITC binding affinity. The settings on record: ITC versus Orf2*. Here is the method:
as §2, §3

Data set [2] has as its target T2, Orf2*. The experiment in a line: Deacetylation catalytic specificity. Format: biochemical. The settings on record: substrate of Orf2* (WT).
For data set [3], the system named is MRSA ATCC 700787. The experiment in a line: In vivo efficacy, intraperitoneal MRSA infection. The settings on record: peritoneal fluid, 24 hours post-inoculation, single dose 20 mgkg^−1 IP. On the set-up: species or system mice. The method, then: (§4) In Vivo Efficacy of r6,N-Acyl-Glc Tei Analogs
(§5) Female C57BL/6 mice (6 weeks of age; about 16-19 g, 3-5 mice per group) were intraperitoneally inoculated with 300 μL of MRSA ATCC 700787 suspension (about 10^7 CFUmL^−1). For intranasal A. baumannii (ATCC 19606) inoculation, mice were anesthetized, and inoculated intranasally with about 10^7-10^8 CFUmL^−1 A. baumannii in 50 μL of PBS. Treatments were started 1 hour after the bacterial challenge. The dose administration to mice was set as follows: teicoplanin (1) or r6,C8-Tei analog (14) 20 mgkg^−1 was intraperitoneally injected to MRSA-infected mice; amikacin (15 mgkg^−1), teicoplanin (1) (30 mgkg^−1), kanamycin (30 mgkg^−1) or r1,Me2-r6,guanidino-C8 analog (24) (30 mgkg^−1) was intraperitoneally injected to AB-infected mice. To assess bacteraemia, the test animals were sacrificed to collect 1 mL of peritoneal fluid (PF) for MRSA counting or the lungs were lavaged to collect 0.6 mL bronchoalveolar lavage (BAL) fluid for A. baumannii counting.
For MRSA, mice were inoculated intraperitoneally (IP) with 0.3 mL of MRSA ATCC 700787 suspension (about 10^7 CFUmL^−1). […] For the saline treated control, bacterial count was calculated (about 7.5 log CFUmL^−1, FIG. 4A). […]

For data set [4], the system named is A. baumannii ATCC 19606. The experiment in a line: MIC, broth microdilution. Format: cell-based, Acinetobacter baumannii. Summed up: as §1
A further data set deals with HEK293T cells. As to the kind of experiment: Alamar Blue cell viability assay. The data set is classed as cell-based, human. The settings on record: up to 100 μgmL^−1; 2 and 24 h. The method, then: The Alamar Blue (AB) assay, which includes a redox indicator that changes color or emits fluorescence in response to a metabolic activity, was used to assess in vitro mammalian cell cytotoxicity (human embryonic kidney cells (HEK293T)) upon an antibiotic treatment. 2×10^5 cellsmL^−1 were allowed to adhere on 96-well plates overnight at 37° C. in a humidified incubator (5% CO2 atmosphere). Tested compounds were dissolved in 50% DMSO to make 1 mgmL^−1 of a stock solution. Cells were separately aliquoted with 5 μL of a test compound (final concentration: 100 μgmL^−1) and incubated. PBS and 50% DMSO, which was used to dissolve compounds, served as a control. Cell viability was triplicated and assessed at 2 and 24 hour time points for each test compound, on which the measurements followed the manufacturer protocol.

For data set [5], the system named is MRSA ATCC 700787. The experiment in a line: Thin-section TEM, cell wall morphology. The data set is classed as cell-based, Staphylococcus aureus. Here is the method:
Thin-Section Transmission Electron Microscopy (TEM)
An overnight cultured MRSA ATCC 700787, VRE ATCC 700221 or A. baumannii ATCC 19606 was individually sub-cultured into a fresh medium. Bacteria at the exponential phase were treated with a given test compound at a concentration of 4×MIC for 1-4 hour at 37° C. and followed by wash and resuspension in PBS. Bacteria cells for the TEM analysis were prepared as follows: Cells were fixed with 2.5% glutaraldehyde for 30 minutes. After the fixation, cells were washed twice with PBS and fixed with 1% osmium tetraoxide for another 30 minutes. All the buffer was removed with distilled water. The cells were then stained with 1% uranyl acetate and dehydrated with a graded ethanol solution. Cells were embedded in resin. Finally, each sample was cut into thin slices of approximately 90 nm with a glass knife and stained with uranyl acetate. The images of bacterial morphological were recorded.
The cell wall/membrane apparently is the targets, while the extent of damage depends on what compound imposes on the strain. […] Cell wall thickening has been a common phenotype in clinical MRSA isolates, which may well be a phenotypic determinant for VRSA. The systemic cell-wall damage may account for the cell-wall biosynthesis crippled all over the cell surface in cell-wall thickening strains, thus leading cells to lysis as a result of the osmotic pressure of cytoplasm.

Data set [6] concerns A. baumannii ATCC 19606. As to the kind of experiment: In vivo efficacy, intranasal A. baumannii infection. On the set-up: species or system mice. The following applies: BAL fluid, 24 hours post-inoculation, 30 mgkg^−1. The method, then:
as §4, §5
For AB (ATCC 19606), female C57BL/6 mice were first anesthetized by intraperitoneal injection of zoletil and then intranasally inoculated with 50 μL of bacteria in a PBS solution (about 10^7-10^8 CFUmL^−1). The treatment started 1 hour post-infection with a single dose of compound 24 (30 mgkg^−1), compound 1 (30 mgkg^−1), amikacin (15 mgkg^−1), or kanamycin (30 mgkg^−1), where saline/compound 1 and amikacin/kanamycin respectively served as negative and positive controls. To assess the density of bacteraemia, the lungs of mice were lavaged to collect 0.6 mL bronchoalveolar lavage (BAL) fluid from each mouse at 24 hours post-inoculation. For saline/compound 1 treated controls, the bacterial load was counted (about 4 log CFUmL^−1, FIG. 4B), where the bacterial load was reduced by 0.5 or 1 log CFUmL^−1 with the treatment of amikacin/kanamycin or compound 24, respectively.

In brackets after ≈: the same amount, converted by molar mass. Bounds are passed on as bounds.

T2 sequence (A0A561VD00 entry or part of it): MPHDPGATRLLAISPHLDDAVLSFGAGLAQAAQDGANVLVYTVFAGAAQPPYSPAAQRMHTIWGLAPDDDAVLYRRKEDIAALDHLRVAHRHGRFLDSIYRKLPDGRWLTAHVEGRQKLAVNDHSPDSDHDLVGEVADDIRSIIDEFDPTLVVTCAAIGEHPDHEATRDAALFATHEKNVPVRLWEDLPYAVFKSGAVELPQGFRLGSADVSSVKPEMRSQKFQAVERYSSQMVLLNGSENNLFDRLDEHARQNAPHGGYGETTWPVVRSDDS

Regarding `CC(=O)N[C@H]1[C@H](O[C@@H]2c3ccc(c(Cl)c3)Oc3cc4cc(c3O)Oc3ccc(cc3Cl)C[C@H]3NC(=O)[C@H](N)c5ccc(O)c(c5)Oc5cc(O)cc(c5)[C@H](NC3=O)C(=O)N[C@H]4C(=O)N[C@H]3C(=O)N[C@@H]2C(=O)N[C@H](C(=O)O)c2cc(O)cc(O)c2-c2cc3ccc2O)O[C@H](CO)[C@@H](O)[C@@H]1O` [Compound 9, r6,GlcNAc Tei-pseudoaglycone], the minimal inhibitory concentration (MIC) was 0.125 µg/mL (≈ 0.0892 µM) against MRSA ATCC BAA-44 (Staphylococcus aureus); 0.5 µg/mL (≈ 0.357 µM) in the data set on MRSA ATCC 700787 VRSA (Staphylococcus aureus); 1 µg/mL (≈ 0.713 µM) against MRSA ATCC 700698 hVISA (Staphylococcus aureus); 0.125 µg/mL (≈ 0.0892 µM) in the data set with MRSA ATCC BAA-39 (Staphylococcus aureus); 0.25 µg/mL (≈ 0.178 µM) against MRSA ATCC 43300 (Staphylococcus aureus); 2 µg/mL (≈ 1.43 µM) against MRSA ATCC 700789 VRSA (Staphylococcus aureus). Moreover, the minimal inhibitory concentration (MIC) against S. aureus ATCC 29213 (Staphylococcus aureus, ATCC29213) is 0.25 µg/mL (≈ 0.178 µM); with MRSA ATCC BAA-38 (Staphylococcus aureus), 0.25 µg/mL (≈ 0.178 µM); against VRE ATCC 700425 (vanC) (Enterococcus), 4 µg/mL (≈ 2.85 µM); against VRE ATCC 700802 (vanB) (Enterococcus), 4 µg/mL (≈ 2.85 µM); against VRE ATCC 700221 (vanA) (Enterococcus), over 128 µg/mL; against E. faecalis ATCC 29302 (Enterococcus faecalis, ATCC29302) it was 2 µg/mL (≈ 1.43 µM). The Kd was determined as 125 ± 14 µM on Orf2*T and 1420 ± 1100 µM at Orf2* [1].

With `CC(=O)N[C@H]1[C@H](Oc2c3cc4cc2Oc2ccc(cc2Cl)[C@@H](O)[C@@H]2NC(=O)[C@H](NC(=O)[C@@H]4NC(=O)[C@H]4NC(=O)[C@@H](Cc5ccc(c(Cl)c5)O3)NC(=O)[C@H](N)c3ccc(O)c(c3)Oc3cc(O)cc4c3)c3ccc(O)c(c3)-c3c(O)cc(O)cc3[C@@H](C(=O)O)NC2=O)O[C@H](CO)[C@@H](O)[C@@H]1O` [Compound 5, r4,GlcNAc Tei-pseudoaglycone], the “kcatKm^−1” value at Orf2* [2] was 377300 M⁻¹ s⁻¹.

As for “teicoplanin [Compound 1, reference compound]”, in the data set with MRSA ATCC 700787 [3], the “bacterial load reduced by” value was 1.5 log CFUmL^−1. The minimal inhibitory concentration (MIC) amounted to 0.5 µg/mL against MRSA ATCC BAA-44 (MRSA ATCC BAA-44); 8 µg/mL in the data set with MRSA ATCC 700787 VRSA (MRSA ATCC 700787 VRSA); 4 µg/mL in the data set on MRSA ATCC 700698 hVISA (MRSA ATCC 700698 hVISA); 0.5 µg/mL against MRSA ATCC BAA-39 (MRSA ATCC BAA-39); 0.25 µg/mL in the data set with MRSA ATCC 43300 (MRSA ATCC 43300); 4 µg/mL in the data set on MRSA ATCC 700789 VRSA (MRSA ATCC 700789 VRSA). The minimal inhibitory concentration (MIC) was 0.25 µg/mL against S. aureus ATCC 29213 (SA ATCC 29213); 0.25 µg/mL against MRSA ATCC BAA-38 (MRSA ATCC BAA-38); 1 µg/mL in the data set on VRE ATCC 700425 (vanC) (VRE ATCC 700425 (vanC)); 0.5 µg/mL in the data set on VRE ATCC 700802 (vanB) (VRE ATCC 700802 (vanB)); over 128 µg/mL against VRE ATCC 700221 (vanA) (VRE ATCC 700221 (vanA)); 100 µM in the data set with A. baumannii ATCC 19606 [4] (A. baumannii ATCC 19606, Table 3, first figure of cell). The minimum inhibitory concentration (MIC) is 187.97 µg/mL with A. baumannii ATCC 19606 [4] (A. baumannii ATCC 19606, Table 3, second figure of cell) and 0.125 µg/mL against E. faecalis ATCC 29302 (EF ATCC 29302). In the data set with HEK293T cells, the “cytotoxicity to HEK293T cells” value is “did not exhibit any observable toxicity”. The “cell wall morphology by TEM” value with MRSA ATCC 700787 [5] was “loose”. Besides, the bacterial load result in the data set with A. baumannii ATCC 19606 [6] is “about 4 log CFUmL^−1”.
